Drawing on the supplement of paper PMC10307832, this text covers relative viability for five compounds.

Each structure is given as a SMILES string.

One experiment concerns LCLC-103H. The experiment can be described thus: relative viability (nuclei count vs DMSO), 5 days (fraction); higher = more cells survive. Particulars: first compound 20 µM. In a few lines:
(§1)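 A single step with final 0.05% Triton X-100, 1% formaldehyde and 1 ug/ml Hoechst fixed the cells and stained nuclei 5 days after treatment. Lung cancer cell lines in 1536-well plates had been treated by pin tool the day after seeding with one drug alone or a fixed anchor-drug dose plus five library-drug doses (not always all listed) in √10 steps, and nuclei were counted on 4× images. Relative viability is the ratio of nuclei in treated wells to nuclei in vehicle wells, taken as the median of duplicate plates.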
In the case of `COCC1(CO)C(=O)C2CCN1CC2` (stereo not given) [PRIMA-1MET] + Nc1nc2[nH]cc(CCc3ccc(C(=O)N[C@@H](CCC(=O)O)C(=O)O)cc3)c2c(=O)[nH]1 [Pemetrexed] (partner 0.2 µM), the relative viability worked out at 0.451.
The same measure, in the same setting: next, `COCC1(CO)C(=O)C2CCN1CC2` (stereo not given) [PRIMA-1MET] + CC(=O)Nc1cccc(-n2c(=O)n(C3CC3)c(=O)c3c(Nc4ccc(I)cc4F)n(C)c(=O)c(C)c32)c1 [Trametinib] (partner 0.02 µM): 0.709; `COCC1(CO)C(=O)C2CCN1CC2` (stereo not given) [PRIMA-1MET] + Nc1ncn([C@H]2C[C@H](O)[C@@H](CO)O2)c(=O)n1 [Decitabine] (partner 2 µM): 0.716.

The subject of the next experiment is HCC-15. The experiment is described as above. Particulars: first compound 0.2 µM. In a few lines:
as §1
On to `COCC1(CO)C(=O)C2CCN1CC2` (stereo not given) [PRIMA-1MET] + COc1cc2c(Oc3ccc(NC(=O)C4(C(=O)Nc5ccc(F)cc5)CC4)cc3F)ccnc2cc1OCCCN1CCOCC1 [Foretinib] (partner 0.25 µM), for which the relative viability was determined as 1.11.
`COCC1(CO)C(=O)C2CCN1CC2` (stereo not given) [PRIMA-1MET] + NC(=O)Nc1cc(-c2cccc(F)c2)sc1C(=O)N[C@H]1CCCNC1 [AZD7762] (partner 0.2 µM) gave a relative viability of 1.17.
On the same count and under the same terms, next, `COCC1(CO)C(=O)C2CCN1CC2` (stereo not given) [PRIMA-1MET] + Nc1nc2[nH]cc(CCc3ccc(C(=O)N[C@@H](CCC(=O)O)C(=O)O)cc3)c2c(=O)[nH]1 [Pemetrexed] (partner 0.2 µM): 0.213; `COCC1(CO)C(=O)C2CCN1CC2` (stereo not given) [PRIMA-1MET] + CC(=O)Nc1cccc(-n2c(=O)n(C3CC3)c(=O)c3c(Nc4ccc(I)cc4F)n(C)c(=O)c(C)c32)c1 [Trametinib] (partner 0.02 µM): 0.37; `COCC1(CO)C(=O)C2CCN1CC2` (stereo not given) [PRIMA-1MET] + Nc1ncn([C@H]2C[C@H](O)[C@@H](CO)O2)c(=O)n1 [Decitabine] (partner 2 µM): 0.663.

Staying with this experiment, now noted: first compound 0.6325 µM.
Consider `COCC1(CO)C(=O)C2CCN1CC2` (stereo not given) [PRIMA-1MET] + COc1cc2c(Oc3ccc(NC(=O)C4(C(=O)Nc5ccc(F)cc5)CC4)cc3F)ccnc2cc1OCCCN1CCOCC1 [Foretinib] (partner 0.25 µM), for which the relative viability turned out to be 0.986.
Same read-out and setting: next, `COCC1(CO)C(=O)C2CCN1CC2` (stereo not given) [PRIMA-1MET] + NC(=O)Nc1cc(-c2cccc(F)c2)sc1C(=O)N[C@H]1CCCNC1 [AZD7762] (partner 0.2 µM): 1.22; `COCC1(CO)C(=O)C2CCN1CC2` (stereo not given) [PRIMA-1MET] + Nc1nc2[nH]cc(CCc3ccc(C(=O)N[C@@H](CCC(=O)O)C(=O)O)cc3)c2c(=O)[nH]1 [Pemetrexed] (partner 0.2 µM): 0.214; `COCC1(CO)C(=O)C2CCN1CC2` (stereo not given) [PRIMA-1MET] + CC(=O)Nc1cccc(-n2c(=O)n(C3CC3)c(=O)c3c(Nc4ccc(I)cc4F)n(C)c(=O)c(C)c32)c1 [Trametinib] (partner 0.02 µM): 0.346.
Compound `COCC1(CO)C(=O)C2CCN1CC2` (stereo not given) [PRIMA-1MET] + Nc1ncn([C@H]2C[C@H](O)[C@@H](CO)O2)c(=O)n1 [Decitabine] (partner 2 µM) displayed a relative viability of 0.373.

Staying with this experiment, now noted: first compound 2 µM.
Consider `COCC1(CO)C(=O)C2CCN1CC2` (stereo not given) [PRIMA-1MET] + COc1cc2c(Oc3ccc(NC(=O)C4(C(=O)Nc5ccc(F)cc5)CC4)cc3F)ccnc2cc1OCCCN1CCOCC1 [Foretinib] (partner 0.25 µM), for which the relative viability amounted to 1.03.
`COCC1(CO)C(=O)C2CCN1CC2` (stereo not given) [PRIMA-1MET] + NC(=O)Nc1cc(-c2cccc(F)c2)sc1C(=O)N[C@H]1CCCNC1 [AZD7762] (partner 0.2 µM) yielded a relative viability of 1.4.
The compound `COCC1(CO)C(=O)C2CCN1CC2` (stereo not given) [PRIMA-1MET] + Nc1nc2[nH]cc(CCc3ccc(C(=O)N[C@@H](CCC(=O)O)C(=O)O)cc3)c2c(=O)[nH]1 [Pemetrexed] (partner 0.2 µM) showed a relative viability of 0.212.
Same read-out and setting: next, `COCC1(CO)C(=O)C2CCN1CC2` (stereo not given) [PRIMA-1MET] + CC(=O)Nc1cccc(-n2c(=O)n(C3CC3)c(=O)c3c(Nc4ccc(I)cc4F)n(C)c(=O)c(C)c32)c1 [Trametinib] (partner 0.02 µM): 0.37; `COCC1(CO)C(=O)C2CCN1CC2` (stereo not given) [PRIMA-1MET] + Nc1ncn([C@H]2C[C@H](O)[C@@H](CO)O2)c(=O)n1 [Decitabine] (partner 2 µM): 0.647.

Staying with this experiment, now noted: first compound 6.325 µM.
The compound `COCC1(CO)C(=O)C2CCN1CC2` (stereo not given) [PRIMA-1MET] + COc1cc2c(Oc3ccc(NC(=O)C4(C(=O)Nc5ccc(F)cc5)CC4)cc3F)ccnc2cc1OCCCN1CCOCC1 [Foretinib] (partner 0.25 µM) yielded a relative viability of 1.02.
Still for that read-out and setting: next, `COCC1(CO)C(=O)C2CCN1CC2` (stereo not given) [PRIMA-1MET] + NC(=O)Nc1cc(-c2cccc(F)c2)sc1C(=O)N[C@H]1CCCNC1 [AZD7762] (partner 0.2 µM): 1.26.
`COCC1(CO)C(=O)C2CCN1CC2` (stereo not given) [PRIMA-1MET] + Nc1nc2[nH]cc(CCc3ccc(C(=O)N[C@@H](CCC(=O)O)C(=O)O)cc3)c2c(=O)[nH]1 [Pemetrexed] (partner 0.2 µM) gave a relative viability of 0.21.
Same read-out and setting: next, `COCC1(CO)C(=O)C2CCN1CC2` (stereo not given) [PRIMA-1MET] + CC(=O)Nc1cccc(-n2c(=O)n(C3CC3)c(=O)c3c(Nc4ccc(I)cc4F)n(C)c(=O)c(C)c32)c1 [Trametinib] (partner 0.02 µM): 0.328.
Still for that read-out and setting: next, `COCC1(CO)C(=O)C2CCN1CC2` (stereo not given) [PRIMA-1MET] + Nc1ncn([C@H]2C[C@H](O)[C@@H](CO)O2)c(=O)n1 [Decitabine] (partner 2 µM): 0.585.

The same experiment, now with this note: first compound 20 µM.
For the compound `COCC1(CO)C(=O)C2CCN1CC2` (stereo not given) [PRIMA-1MET] + COc1cc2c(Oc3ccc(NC(=O)C4(C(=O)Nc5ccc(F)cc5)CC4)cc3F)ccnc2cc1OCCCN1CCOCC1 [Foretinib] (partner 0.25 µM), the relative viability worked out at 0.555.
`COCC1(CO)C(=O)C2CCN1CC2` (stereo not given) [PRIMA-1MET] + NC(=O)Nc1cc(-c2cccc(F)c2)sc1C(=O)N[C@H]1CCCNC1 [AZD7762] (partner 0.2 µM) showed a relative viability of 1.16.
Same read-out and setting: next, `COCC1(CO)C(=O)C2CCN1CC2` (stereo not given) [PRIMA-1MET] + Nc1nc2[nH]cc(CCc3ccc(C(=O)N[C@@H](CCC(=O)O)C(=O)O)cc3)c2c(=O)[nH]1 [Pemetrexed] (partner 0.2 µM): 0.217; `COCC1(CO)C(=O)C2CCN1CC2` (stereo not given) [PRIMA-1MET] + CC(=O)Nc1cccc(-n2c(=O)n(C3CC3)c(=O)c3c(Nc4ccc(I)cc4F)n(C)c(=O)c(C)c32)c1 [Trametinib] (partner 0.02 µM): 0.31.
`COCC1(CO)C(=O)C2CCN1CC2` (stereo not given) [PRIMA-1MET] + Nc1ncn([C@H]2C[C@H](O)[C@@H](CO)O2)c(=O)n1 [Decitabine] (partner 2 µM): the relative viability was determined as 0.563.

Another experiment relates to NCI-H2405. The description is as above. The conditions noted are these: first compound 0.2 µM. In a few lines:
as §1
Consider `COCC1(CO)C(=O)C2CCN1CC2` (stereo not given) [PRIMA-1MET] + COc1cc2c(Oc3ccc(NC(=O)C4(C(=O)Nc5ccc(F)cc5)CC4)cc3F)ccnc2cc1OCCCN1CCOCC1 [Foretinib] (partner 0.25 µM), for which the relative viability was 1.03.
In the case of `COCC1(CO)C(=O)C2CCN1CC2` (stereo not given) [PRIMA-1MET] + NC(=O)Nc1cc(-c2cccc(F)c2)sc1C(=O)N[C@H]1CCCNC1 [AZD7762] (partner 0.2 µM), the relative viability was found to be 0.753.
